Source: US10478421B1, “Sortilin binding compounds, formulations, and uses thereof” (University of Florida, priority 2016, dated 2019)
Several values for one entry are separate records, joined by “and”; a condition that tells them apart may be missing. Equal entries are not always repeated.

Legend:
[1] = tested on: McA cells; assay: Insulin signaling (pY-IRβ, p-AKT S473) by immunoblotting in McA cells; format: cell-based, rat; conditions: 10 μM, 18 h, then 250 nM insulin
Experimental: (FIG. 4A) McA cell lines with variable sortilin KD were incubated with vehicle (black bars) or with 10 μM cpd984 (gray bars) for 18 h (3-100 mm plates per condition). […] VLDL was isolated from media of each plate and VLDL-B100 was quantified by immuno slot blotting. Results presented are averages of the 3 plates ±S.D. (FIG. 4B) McA cells were incubated for 18 h in 1% BSA/DMEM±10 μM cpd984. McA cells were then stimulated with a time course of 250 nM insulin (0, 5, 10 and 15 min). IRβ and AKT, pY-IRβ, and p-AKT (S473) were evaluated by immunoblotting using protein and phosphospecific antibodies.
McA cell lysates were prepared and denatured proteins were separated by SDS-PAGE as described previously. Following electrophoretic transfer to PVDF membranes and blocking non-specific binding, membranes were incubated with primary antibodies overnight at 4° C. in blocking buffer. Antibody binding was detected by incubation for 1-2 h at room temperature with species specific secondary HRP-linked antibodies and developed using Amersham™ Prime reagent (GE Healthcare). Insulin signaling to IRβ and AKT were evaluated using nitrocellulose membranes (Bio-Rad) and phosphospecific (pY, p-AKT(Ser473) and mass specific antibodies. Chemiluminescence was measured using the ChemiDocXRS+system (Bio-Rad) and band intensities quantified using Image Lab 3.0.1 software (Bio-Rad).

[2] = target: T1, hsortilin (Homo sapiens, UniProt Q99523); assay: Surface plasmon resonance of NT and cpd984 on immobilized hsortilin (Ni-NTA chip, Example 1); format: binding
T1 construct: Human sortilin (hsortilin) (Ser78-Asn755) with C-terminal 6-His tag; purchased R&D Systems, Inc. (Minneapolis, Minn.)
T1 sequence (Q99523 78-755): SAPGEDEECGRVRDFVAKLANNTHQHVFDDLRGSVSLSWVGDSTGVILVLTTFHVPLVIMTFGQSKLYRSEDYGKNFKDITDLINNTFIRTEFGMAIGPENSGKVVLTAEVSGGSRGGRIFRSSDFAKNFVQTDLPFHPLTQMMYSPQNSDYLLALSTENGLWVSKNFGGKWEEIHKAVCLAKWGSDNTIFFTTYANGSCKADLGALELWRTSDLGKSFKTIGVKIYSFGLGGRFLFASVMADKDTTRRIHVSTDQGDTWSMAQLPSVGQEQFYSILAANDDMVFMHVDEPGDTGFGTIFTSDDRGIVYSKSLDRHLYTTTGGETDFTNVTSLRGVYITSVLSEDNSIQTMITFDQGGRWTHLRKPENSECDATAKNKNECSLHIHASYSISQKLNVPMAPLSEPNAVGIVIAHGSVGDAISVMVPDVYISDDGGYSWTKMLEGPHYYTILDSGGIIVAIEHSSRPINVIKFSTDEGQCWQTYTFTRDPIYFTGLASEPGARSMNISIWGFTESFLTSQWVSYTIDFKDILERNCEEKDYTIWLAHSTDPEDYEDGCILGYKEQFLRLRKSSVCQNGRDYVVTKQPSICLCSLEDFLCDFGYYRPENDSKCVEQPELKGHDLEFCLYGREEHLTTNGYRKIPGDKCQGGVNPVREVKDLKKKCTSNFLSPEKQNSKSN
Experimental: Surface plasmon resonance measurements were performed on a Biacore T200 instrument equipped with Ni-NTA sensor chips with ˜6800 response units (RU) for hsortilin covalently immobilized to the surface. HBS-DMSO running buffer (10 mM Hepes pH 7.4, 150 mM NaCl, 1% DMSO) was used at a flow rate of 30 μl/min and injections performed with times for association of 90 s, and dissociation of 300 s, followed by injection of buffer to regenerate the hsortilin surface. Binding was expressed in relative RU; the difference in response between the immobilized protein flow cell and the corresponding control flow cell.

SPR binding response ([2]; 100 nM NT injected with 500 μM cpd984): 64.1 RU and 64.7 RU | averaged RU of NT co-injected with 984 ([2]; 100 nM NT with 500 μM cpd984, average): 64.4 RU | increase in binding to hsortilin for co-injected NT over the combination of NT and cpd984 alone ([2]; 100 nM NT, 500 μM cpd984): 14.5 RU | SPR binding response ([2]; 500 μM cpd984 alone): 45.1 RU and 44.8 RU | RU of 500 μM cpd984 and 100 nM NT (sum of separate injections) ([2]; sum of averaged responses injected alone): 50.0 RU
SMILES: CN1CCC[C@H]1C(=O)Nc1cccc(NC(=O)CCc2ccccc2)c1 [cpd984, (2S)-1-methyl-N-{3-[(3-phenylpropanoyl)-amino]phenyl} pyrrolidine-2-carboxamide]
effect on insulin sensitivity (insulin-dependent pY of IRβ, pAKT) [1]: did not alter insulin sensitivity
